Drawing on PubChem BioAssay AID248 (DTP/NCI, 2004), this text covers T/C for 13 molecules.

This test deals with L1210 leukemia ip in BDF1 mice, survival T/C. Put plainly: NCI In Vivo Anticancer Drug Screen. Data for tumor model L1210 Leukemia (intraperitoneal) in B6D2F1 (BDF1) mice. The note with it: endpoint: mean survival time, higher = longer survival. The essentials: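 Mice bearing the transplanted tumor received compound or vehicle. Survival of the treated group was divided by that of the vehicle-treated control group to give the ratio.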

Setting [1] is: dose: 100.0 mg/kg/injection, schedule: Q04DX003 (ip), vehicle: saline.
Setting [2] is: dose: 200.0 mg/kg/injection, schedule: Q04DX003 (ip), vehicle: saline.
Where [3] appears, read: dose: 400.0 mg/kg/injection, schedule: Q04DX003 (ip), vehicle: saline.

Values joined by “and” are separate entries in the source; they are usually repeats but may differ in a detail not shown here. Equal entries are not always repeated. Inconclusive results and toxic doses are left out. Peptide text beside a SMILES is read from it. * marks the point of attachment. Cbz = O=C(OCc1ccccc1)*; Bn = c1ccc(C*)cc1

As to `CN(N=O)C(=O)Nc1c[nH]c(=O)[nH]c1=O`, the T/C is, setting by setting: (dose: 10.0 mg/kg/injection, schedule: Q01DX Z (ip), vehicle: carboxymethylcellulose (CMC)) 172 % of control; (dose: 20.0 mg/kg/injection, schedule: Q01DX Z (ip), vehicle: carboxymethylcellulose (CMC)) 207 % of control; (dose: 27.0 mg/kg/injection, schedule: Q01DX Z (ip), vehicle: saline) 151 % of control; (dose: 40.0 mg/kg/injection, schedule: Q01DX Z (ip), vehicle: carboxymethylcellulose (CMC)) 239 % of control; (dose: 40.5 mg/kg/injection, schedule: Q01DX Z (ip), vehicle: saline) 159 % of control; (dose: 50.0 mg/kg/injection, schedule: Q01DX Z (ip), vehicle: carboxymethylcellulose (CMC)) 165 % of control and 206 % of control. Moreover, the T/C was 183 % of control (dose: 60.0 mg/kg/injection, schedule: Q01DX Z (ip), vehicle: carboxymethylcellulose (CMC)); 162 % of control (dose: 60.7 mg/kg/injection, schedule: Q01DX Z (ip), vehicle: saline); 101 % of control (dose: 80.0 mg/kg/injection, schedule: Q01DX Z (ip), vehicle: carboxymethylcellulose (CMC)); 98 % of control (dose: 91.1 mg/kg/injection, schedule: Q01DX Z (ip), vehicle: saline); 185 % of control (dose: 240.0 mg/kg/injection, schedule: Q01DX001 (ip), vehicle: saline); 188 % of control (dose: 480.0 mg/kg/injection, schedule: Q01DX001 (ip), vehicle: saline). Further, where the note is “dose: 960.0 mg/kg/injection, schedule: Q01DX001 (ip), vehicle: saline”, the T/C was 173 % of control.
In the case of `CCN(CC)C(=O)Oc1ccc(OC)cc1`, the T/C is 109 % of control (dose: 100.0 mg/kg/injection, schedule: Q01DX009 (ip), vehicle: saline with Tween-80) and 96 % of control (dose: 200.0 mg/kg/injection, schedule: Q01DX009 (ip), vehicle: saline with Tween-80).
In the case of `O=C(NCCCCNC(=O)Nc1cccc(C2=NCCN2)c1)Nc1cccc(C2=NCCN2)c1`, the T/C (dose: 12.0 mg/kg/injection, schedule: Q01DX Z (ip), vehicle: carboxymethylcellulose (CMC)) is 114 % of control; the T/C (dose: 23.0 mg/kg/injection, schedule: Q01DX Z (ip), vehicle: carboxymethylcellulose (CMC)) was 100 % of control; the T/C (dose: 46.0 mg/kg/injection, schedule: Q01DX Z (ip), vehicle: carboxymethylcellulose (CMC)) is 108 % of control.
With `CCOc1nc(N)nc2n[nH]nc12`, the T/C was 93 % of control (dose: 82.0 mg/kg/injection, schedule: Q01DX Z (ip), vehicle: carboxymethylcellulose (CMC)); 112 % of control (dose: 175.0 mg/kg/injection, schedule: Q01DX Z (ip), vehicle: carboxymethylcellulose (CMC)); 95 % of control (dose: 262.0 mg/kg/injection, schedule: Q01DX Z (ip), vehicle: carboxymethylcellulose (CMC)).
With `Br/C=C/C1=CCCCC1`, the T/C by setting is: (dose: 100.0 mg/kg/injection, schedule: Q01DX009 (ip), vehicle: acetone) 98 % of control; under setting [1], 97 % of control; (dose: 200.0 mg/kg/injection, schedule: Q01DX009 (ip), vehicle: acetone) 90 % of control; under setting [2], 92 % of control; under setting [3], 114 % of control.
As for `CNC(=O)Oc1cccc(NC(=O)OC(C)(C)C)c1`, the T/C is 101 % of control (dose: 100.0 mg/kg/injection, schedule: Q04DX003 (ip), vehicle: saline with Tween-80); 94 % of control (dose: 200.0 mg/kg/injection, schedule: Q04DX003 (ip), vehicle: saline with Tween-80); 95 % of control (dose: 400.0 mg/kg/injection, schedule: Q04DX003 (ip), vehicle: saline with Tween-80).
`CCCCc1c(C)nc(N)nc1N`: the T/C runs as follows: (dose: 3.12 mg/kg/injection, schedule: Q01DX001 (ip), vehicle: Klucel (hydroxypropylcellulose) (HPC)) 105 % of control; (dose: 6.25 mg/kg/injection, schedule: Q01DX001 (ip), vehicle: Klucel (hydroxypropylcellulose) (HPC)) 110 % of control; (dose: 12.5 mg/kg/injection, schedule: Q01DX001 (ip), vehicle: Klucel (hydroxypropylcellulose) (HPC)) 111 % of control; (dose: 25.0 mg/kg/injection, schedule: Q01DX001 (ip), vehicle: saline) 98 % of control.
`C(CC1CO1)CC1OC1CC1CO1` (centres undefined): the T/C (dose: 15.0 mg/kg/injection, schedule: Q01DX009 (ip), vehicle: Klucel (hydroxypropylcellulose) (HPC)) is 102 % of control; the T/C (dose: 18.0 mg/kg/injection, schedule: Q04DX003 (ip), vehicle: saline with Tween-80) is 110 % of control; the T/C (dose: 26.0 mg/kg/injection, schedule: Q04DX003 (ip), vehicle: saline with Tween-80) is 110 % of control; the T/C (dose: 30.0 mg/kg/injection, schedule: Q01DX009 (ip), vehicle: Klucel (hydroxypropylcellulose) (HPC)) is 105 % of control; the T/C (dose: 39.0 mg/kg/injection, schedule: Q04DX003 (ip), vehicle: saline with Tween-80) is 106 % of control; the T/C (dose: 40.0 mg/kg/injection, schedule: Q04DX003 (ip), vehicle: saline) is 108 % of control. Further, the T/C (dose: 45.0 mg/kg/injection, schedule: Q01DX009 (ip), vehicle: Klucel (hydroxypropylcellulose) (HPC)) is 108 % of control; the T/C (dose: 59.0 mg/kg/injection, schedule: Q04DX003 (ip), vehicle: saline with Tween-80) was 108 % of control; the T/C (dose: 60.0 mg/kg/injection, schedule: Q01DX009 (ip), vehicle: Klucel (hydroxypropylcellulose) (HPC)) was 113 % of control; the T/C (dose: 80.0 mg/kg/injection, schedule: Q04DX003 (ip), vehicle: saline) was 118 % of control; the T/C (dose: 89.0 mg/kg/injection, schedule: Q04DX003 (ip), vehicle: saline with Tween-80) is 117 % of control; the T/C (dose: 120.0 mg/kg/injection, schedule: Q01DX009 (ip), vehicle: other) was 119 % of control. Also, the T/C is 97 % of control (dose: 133.0 mg/kg/injection, schedule: Q01DX009 (ip), vehicle: saline with Tween-80); 115 % of control (dose: 133.0 mg/kg/injection, schedule: Q04DX003 (ip), vehicle: saline with Tween-80); 154 % of control (dose: 160.0 mg/kg/injection, schedule: Q04DX003 (ip), vehicle: saline).
Regarding `OC/C(I)=C(I)\C(I)=C(\I)CO`, the T/C (dose: 25.0 mg/kg/injection, schedule: Q04DX002 (ip), vehicle: Klucel (hydroxypropylcellulose) (HPC)) was 90 % of control; the T/C (dose: 50.0 mg/kg/injection, schedule: Q04DX002 (ip), vehicle: Klucel (hydroxypropylcellulose) (HPC)) is 90 % of control; the T/C (dose: 100.0 mg/kg/injection, schedule: Q04DX002 (ip), vehicle: Klucel (hydroxypropylcellulose) (HPC)) was 94 % of control and 101 % of control.
With `O=C(NC(CSCc1ccccc1)C(=O)NC(Cc1ccc(O)cc1)C(=O)O)OCc1ccccc1` (centres undefined) (Cbz-Cys(Bn)-Tyr-OH; configuration not given here), the T/C reads like this: (dose: 100.0 mg/kg/injection, schedule: Q01DX009 (ip), vehicle: gum acacia) 95 % of control; (dose: 100.0 mg/kg/injection, schedule: Q04DX003 (ip), vehicle: gum acacia) 103 % of control; (dose: 200.0 mg/kg/injection, schedule: Q01DX009 (ip), vehicle: gum acacia) 95 % of control; (dose: 200.0 mg/kg/injection, schedule: Q04DX003 (ip), vehicle: gum acacia) 103 % of control; (dose: 400.0 mg/kg/injection, schedule: Q01DX009 (ip), vehicle: gum acacia) 89 % of control; (dose: 400.0 mg/kg/injection, schedule: Q04DX003 (ip), vehicle: gum acacia) 92 % of control.
With `CNC(=O)C(C)C1C(=O)/C(=C(O)/C=C/C(C)=C\C(C)C2OC3(C)OC(C=CC34CO4)C2C)C(=O)N1C1CCC(O)C(C)O1` (centres undefined), the T/C was 111 % of control (dose: 100.0 mg/kg/injection, schedule: Q01DX009 (ip), vehicle: saline); 97 % of control under setting [1]; 101 % of control (dose: 200.0 mg/kg/injection, schedule: Q01DX009 (ip), vehicle: saline); 105 % of control under setting [2]; 107 % of control under setting [3].
Consider `Cc1cc(=O)c2ccccc2[nH]1`, for which the T/C runs as follows: (dose: 25.0 mg/kg/injection, schedule: Q04DX003 (ip), vehicle: saline) 94 % of control; (dose: 50.0 mg/kg/injection, schedule: Q04DX003 (ip), vehicle: saline) 100 % of control; under setting [1], 94 % of control and 96 % of control.
As for `COC(=O)C1=C(C)NC(=O)NC1c1ccc(N(CCCl)CCCl)c(OC)c1` (centres undefined), the T/C was 115 % of control (dose: 3.0 mg/kg/injection, schedule: Q01DX009 (ip), vehicle: Klucel (hydroxypropylcellulose) (HPC)); 117 % of control (dose: 6.0 mg/kg/injection, schedule: Q01DX009 (ip), vehicle: Klucel (hydroxypropylcellulose) (HPC)); 112 % of control (dose: 12.0 mg/kg/injection, schedule: Q01DX009 (ip), vehicle: Klucel (hydroxypropylcellulose) (HPC)); 109 % of control (dose: 100.0 mg/kg/injection, schedule: Q01DX001 (ip), vehicle: Klucel (hydroxypropylcellulose) (HPC)).
